Paper PMC5095062, “The novel choline kinase inhibitor ICL-CCIC-0019 reprograms cellular metabolism and inhibits cancer cell growth” (Oncotarget, 2016)

Assays:
Format in all cases: biochemical
[1] = biological target: recombinant human Δ49N CHKA2 (Homo sapiens, UniProt P35790); experiment: Enzymatic inhibition of choline kinase activity
Procedure: Enzymatic kinase activity, [^3H]choline to [^3H]PCho conversion and growth inhibition assays was conducted as previously described. [^3H]choline incorporation into soluble and lipid fractions was determined by a pulse-chase experiment. HCT116 cells were seeded at a density of 3 × 10^5 cell per well into 12-well plates and incubated overnight. Cells were treated with 1 or 10 μM ICL-CCIC-0019 for 1 h and pulsed in presence of inhibitor with 18.5 kBq/mL [^3H]choline chloride in 500 μL for 1 additional h. Cells were briefly rinsed with RPMI and incubated with fresh, non-radioactive medium for 6 h. Metabolites were extracted as described elsewhere, but additionally the radioactivity of the choline-containing and chloroform (lipid-containing) fractions was measured. Uptake of radiolabeled metabolite-tracers was measured as described elsewhere. Antiproliferative activity was measured after 72 h continuous exposure to inhibitors by sulforhodamine B (SRB) assay as described elsewhere. Apoptosis was determined using Caspase 3/7 Glo assay (Promega) according to the manufacturer's instructions.

[2] = tested on: panel of 131 human kinases; experiment: Kinase selectivity screen (whole panel); settings: 10 μM
Procedure: The substantially less demanding synthesis of ICL-CCIC-0019 compared with MN58B bears additional advantages. […] This consequently diminished intracellular PCho concentration, and importantly, the incorporation of [^3H]-choline into lipids (Figure 1D). […] To assess kinase specificity, ICL-CCIC-0019 was tested against a panel of 131 human kinases (Figure 1E and Supplementary Table S1). […] Inhibition greater than 20% was attained for insulin-like growth factor 1 (IGF-1R, 35 ± 7% inhibition), mitogen-activated protein kinase-activated protein kinase 3 (MAPKAP-K3, 33 ± 6%), extracellular signal regulated kinase 8 (ERK8, 31 ± 4%), ribosomal S6 kinase 1 (RSK1, 22 ± 6%), and v-erb-a erythroblastic leukemia viral oncogene homolog 4 (HER4, 21 ± 7%).

[3] = biological target: Aurora B (Homo sapiens, UniProt Q96GD4); experiment: Kinase selectivity screen
[4] = biological target: BRSK2 (Homo sapiens, UniProt Q8IWQ3); experiment: Kinase selectivity screen; settings: BRSK2, 10 μM
[5] = biological target: BTK (Homo sapiens, UniProt Q06187); experiment: Kinase selectivity screen
[6] = biological target: CAMKKb (Homo sapiens, UniProt Q96RR4); experiment: Kinase selectivity screen
[7] = biological target: CHK2 (Homo sapiens, UniProt O96017); experiment: Kinase selectivity screen; settings: CHK2, 10 μM
[8] = biological target: EF2K (Homo sapiens, UniProt O00418); experiment: Kinase selectivity screen
In short: (§1)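 ICL-CCIC-0019 was screened against a panel of 131 human kinases to assess kinase specificity. Activity was expressed as percent inhibition of each kinase.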

[9] = biological target: IKKb (Homo sapiens, UniProt O14920); experiment: Kinase selectivity screen
In short: as §1

[10] = biological target: IKKe (Homo sapiens, UniProt Q14164); experiment: Kinase selectivity screen
In short: as §1

[11] = biological target: IRAK1 (Homo sapiens, UniProt P51617); experiment: Kinase selectivity screen; settings: IRAK1, 10 μM
[12] = biological target: IRAK4 (Homo sapiens, UniProt Q9NWZ3); experiment: Kinase selectivity screen; settings: IRAK4, 10 μM
[13] = biological target: MELK (Homo sapiens, UniProt Q14680); experiment: Kinase selectivity screen
[14] = biological target: MKK6 (Homo sapiens, UniProt P52564); experiment: Kinase selectivity screen; settings: MKK6, 10 μM
[15] = biological target: MPSK1 (Homo sapiens, UniProt O75716); experiment: Kinase selectivity screen; settings: MPSK1, 10 μM
In short: as §1

[16] = biological target: NEK6 (Homo sapiens, UniProt Q9HC98); experiment: Kinase selectivity screen; settings: NEK6, 10 μM
In short: as §1

[17] = biological target: NUAK1 (Homo sapiens, UniProt O60285); experiment: Kinase selectivity screen; settings: NUAK1, 10 μM
In short: as §1

[18] = biological target: OSR1 (Homo sapiens, UniProt O95747); experiment: Kinase selectivity screen; settings: OSR1, 10 μM
In short: as §1

[19] = biological target: PAK2 (Homo sapiens, UniProt Q13177); experiment: Kinase selectivity screen; settings: PAK2, 10 μM
In short: as §1

[20] = biological target: PAK5 (Homo sapiens, UniProt Q9P286); experiment: Kinase selectivity screen; settings: PAK5, 10 μM
In short: as §1

[21] = biological target: PKBb (Homo sapiens, UniProt P31751); experiment: Kinase selectivity screen
In short: as §1

[22] = biological target: SGK1 (Homo sapiens, UniProt O00141); experiment: Kinase selectivity screen; settings: SGK1, 10 μM
In short: as §1

[23] = biological target: TAK1-TAB1 (Homo sapiens, UniProt O43318); experiment: Kinase selectivity screen; settings: TAK1-TAB1, 10 μM
In short: as §1

[24] = biological target: TAO1 (Homo sapiens, UniProt Q7L7X3); experiment: Kinase selectivity screen; settings: TAO1, 10 μM
In short: as §1

[25] = biological target: TESK1 (Homo sapiens, UniProt Q15569); experiment: Kinase selectivity screen; settings: TESK1, 10 μM
In short: as §1

[26] = biological target: TSSK1 (Homo sapiens, UniProt Q9BXA7); experiment: Kinase selectivity screen; settings: TSSK1, 10 μM
In short: as §1

[27] = biological target: p38a MAPK (Homo sapiens, UniProt Q16539); experiment: Kinase selectivity screen
In short: as §1

recombinant human Δ49N CHKA2, sequence (P35790 50-457 limits assumed, stated change not applied): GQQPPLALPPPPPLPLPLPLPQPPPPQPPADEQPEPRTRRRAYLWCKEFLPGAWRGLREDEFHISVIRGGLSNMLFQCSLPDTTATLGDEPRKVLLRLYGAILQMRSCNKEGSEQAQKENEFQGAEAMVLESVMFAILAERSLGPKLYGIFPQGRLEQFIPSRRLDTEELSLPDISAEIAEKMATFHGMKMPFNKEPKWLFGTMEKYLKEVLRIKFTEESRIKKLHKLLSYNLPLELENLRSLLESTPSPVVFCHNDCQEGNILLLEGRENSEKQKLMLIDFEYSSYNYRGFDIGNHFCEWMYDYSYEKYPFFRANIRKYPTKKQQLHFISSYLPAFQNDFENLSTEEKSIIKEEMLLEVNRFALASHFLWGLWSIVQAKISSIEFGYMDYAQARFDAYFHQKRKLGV
PKBb, sequence (P31751 whole entry): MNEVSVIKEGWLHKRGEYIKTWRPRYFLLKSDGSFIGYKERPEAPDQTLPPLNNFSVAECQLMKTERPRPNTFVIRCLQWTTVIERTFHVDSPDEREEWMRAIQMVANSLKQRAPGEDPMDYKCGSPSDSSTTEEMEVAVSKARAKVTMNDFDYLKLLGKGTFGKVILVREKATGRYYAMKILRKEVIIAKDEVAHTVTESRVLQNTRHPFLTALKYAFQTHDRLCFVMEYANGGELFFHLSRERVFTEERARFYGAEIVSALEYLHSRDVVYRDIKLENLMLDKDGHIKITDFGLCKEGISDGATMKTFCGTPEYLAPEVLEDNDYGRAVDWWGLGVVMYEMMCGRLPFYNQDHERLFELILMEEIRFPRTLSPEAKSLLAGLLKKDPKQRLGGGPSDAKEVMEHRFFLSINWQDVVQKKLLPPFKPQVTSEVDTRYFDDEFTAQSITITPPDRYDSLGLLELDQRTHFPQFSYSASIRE
NUAK1, sequence (O60285 whole entry): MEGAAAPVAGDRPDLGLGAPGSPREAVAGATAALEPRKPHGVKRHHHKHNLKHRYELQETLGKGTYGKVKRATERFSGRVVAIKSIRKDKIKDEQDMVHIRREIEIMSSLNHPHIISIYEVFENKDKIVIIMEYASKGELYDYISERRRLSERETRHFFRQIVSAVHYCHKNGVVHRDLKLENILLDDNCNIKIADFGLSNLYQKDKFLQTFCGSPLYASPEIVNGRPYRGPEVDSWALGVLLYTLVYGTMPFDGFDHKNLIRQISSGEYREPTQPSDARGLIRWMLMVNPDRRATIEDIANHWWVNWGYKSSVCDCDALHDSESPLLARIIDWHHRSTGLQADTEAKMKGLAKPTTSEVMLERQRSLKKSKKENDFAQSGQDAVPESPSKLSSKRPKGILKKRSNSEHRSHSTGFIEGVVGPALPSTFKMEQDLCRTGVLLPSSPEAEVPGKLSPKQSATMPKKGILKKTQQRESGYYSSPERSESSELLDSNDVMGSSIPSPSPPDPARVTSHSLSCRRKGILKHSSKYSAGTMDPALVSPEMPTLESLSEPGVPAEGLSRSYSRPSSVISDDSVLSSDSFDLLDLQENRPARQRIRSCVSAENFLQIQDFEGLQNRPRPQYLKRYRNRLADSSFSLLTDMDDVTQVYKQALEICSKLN
BTK, sequence (Q06187 whole entry): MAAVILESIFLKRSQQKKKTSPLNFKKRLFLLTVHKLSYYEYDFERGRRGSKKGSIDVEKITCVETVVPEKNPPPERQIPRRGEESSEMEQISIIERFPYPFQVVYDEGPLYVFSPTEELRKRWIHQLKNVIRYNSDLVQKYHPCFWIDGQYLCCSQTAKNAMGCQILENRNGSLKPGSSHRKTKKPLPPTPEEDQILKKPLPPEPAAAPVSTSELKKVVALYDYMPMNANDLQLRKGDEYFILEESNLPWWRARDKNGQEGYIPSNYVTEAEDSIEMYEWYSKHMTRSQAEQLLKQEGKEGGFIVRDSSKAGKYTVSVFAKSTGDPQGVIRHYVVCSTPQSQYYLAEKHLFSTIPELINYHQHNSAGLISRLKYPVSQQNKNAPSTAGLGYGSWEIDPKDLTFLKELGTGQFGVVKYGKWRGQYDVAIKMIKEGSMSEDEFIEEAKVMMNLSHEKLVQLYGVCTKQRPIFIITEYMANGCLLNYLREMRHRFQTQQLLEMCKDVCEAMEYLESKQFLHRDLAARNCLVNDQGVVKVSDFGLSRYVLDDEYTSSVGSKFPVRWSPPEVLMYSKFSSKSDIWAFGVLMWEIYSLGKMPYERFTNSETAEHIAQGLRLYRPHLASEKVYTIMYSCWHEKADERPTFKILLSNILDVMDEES
MELK, sequence (Q14680 whole entry): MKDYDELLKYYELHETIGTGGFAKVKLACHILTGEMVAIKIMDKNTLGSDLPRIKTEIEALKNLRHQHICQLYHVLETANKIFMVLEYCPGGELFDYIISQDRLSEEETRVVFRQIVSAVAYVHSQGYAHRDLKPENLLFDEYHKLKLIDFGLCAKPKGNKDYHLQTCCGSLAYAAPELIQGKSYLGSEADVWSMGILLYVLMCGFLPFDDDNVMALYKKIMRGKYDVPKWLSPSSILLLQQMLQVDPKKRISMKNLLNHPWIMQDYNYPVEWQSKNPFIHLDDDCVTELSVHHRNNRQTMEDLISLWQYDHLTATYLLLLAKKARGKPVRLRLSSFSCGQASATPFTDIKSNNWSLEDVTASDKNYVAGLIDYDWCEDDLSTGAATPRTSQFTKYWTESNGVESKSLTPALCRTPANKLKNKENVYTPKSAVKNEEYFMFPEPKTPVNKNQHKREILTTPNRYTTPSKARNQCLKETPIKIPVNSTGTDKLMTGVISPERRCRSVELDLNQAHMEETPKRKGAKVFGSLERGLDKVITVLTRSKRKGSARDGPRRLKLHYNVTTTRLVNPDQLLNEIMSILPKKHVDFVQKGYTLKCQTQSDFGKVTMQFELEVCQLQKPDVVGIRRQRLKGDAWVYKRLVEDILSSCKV
IKKb, sequence (O14920 whole entry): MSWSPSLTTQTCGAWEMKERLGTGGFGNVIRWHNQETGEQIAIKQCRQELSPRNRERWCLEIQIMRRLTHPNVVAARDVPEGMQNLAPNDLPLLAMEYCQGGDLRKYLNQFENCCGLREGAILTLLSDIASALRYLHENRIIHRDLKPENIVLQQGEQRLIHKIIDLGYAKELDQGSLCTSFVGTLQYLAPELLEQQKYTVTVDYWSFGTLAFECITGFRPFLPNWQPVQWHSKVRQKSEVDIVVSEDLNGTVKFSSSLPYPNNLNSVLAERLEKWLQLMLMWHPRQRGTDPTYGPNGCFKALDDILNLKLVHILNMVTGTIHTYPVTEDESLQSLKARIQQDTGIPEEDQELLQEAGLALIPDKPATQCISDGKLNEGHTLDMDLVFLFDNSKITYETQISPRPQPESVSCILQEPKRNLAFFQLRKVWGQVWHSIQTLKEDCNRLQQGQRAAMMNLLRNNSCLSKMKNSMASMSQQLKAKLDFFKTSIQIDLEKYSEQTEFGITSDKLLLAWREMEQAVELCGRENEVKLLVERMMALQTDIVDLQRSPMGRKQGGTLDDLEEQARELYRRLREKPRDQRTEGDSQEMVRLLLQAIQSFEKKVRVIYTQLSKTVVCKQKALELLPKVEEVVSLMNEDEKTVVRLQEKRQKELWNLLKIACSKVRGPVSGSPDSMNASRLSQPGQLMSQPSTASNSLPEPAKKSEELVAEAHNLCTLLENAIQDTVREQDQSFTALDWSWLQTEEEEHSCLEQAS
OSR1, sequence (O95747 whole entry): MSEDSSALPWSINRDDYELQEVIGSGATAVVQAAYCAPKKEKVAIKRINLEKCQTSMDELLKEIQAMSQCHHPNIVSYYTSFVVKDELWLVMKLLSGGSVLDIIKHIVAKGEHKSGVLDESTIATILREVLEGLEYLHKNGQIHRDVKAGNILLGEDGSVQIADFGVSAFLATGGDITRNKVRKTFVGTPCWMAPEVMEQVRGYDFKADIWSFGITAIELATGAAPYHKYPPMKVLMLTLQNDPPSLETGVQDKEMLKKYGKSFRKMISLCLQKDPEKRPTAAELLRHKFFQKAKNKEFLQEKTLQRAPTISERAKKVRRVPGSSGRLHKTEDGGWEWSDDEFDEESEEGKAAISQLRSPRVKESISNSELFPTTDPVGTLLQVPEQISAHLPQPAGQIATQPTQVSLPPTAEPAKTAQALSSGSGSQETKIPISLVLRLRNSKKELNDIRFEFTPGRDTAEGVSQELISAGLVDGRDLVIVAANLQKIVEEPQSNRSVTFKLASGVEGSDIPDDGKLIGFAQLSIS
PAK5, sequence (Q9P286 whole entry): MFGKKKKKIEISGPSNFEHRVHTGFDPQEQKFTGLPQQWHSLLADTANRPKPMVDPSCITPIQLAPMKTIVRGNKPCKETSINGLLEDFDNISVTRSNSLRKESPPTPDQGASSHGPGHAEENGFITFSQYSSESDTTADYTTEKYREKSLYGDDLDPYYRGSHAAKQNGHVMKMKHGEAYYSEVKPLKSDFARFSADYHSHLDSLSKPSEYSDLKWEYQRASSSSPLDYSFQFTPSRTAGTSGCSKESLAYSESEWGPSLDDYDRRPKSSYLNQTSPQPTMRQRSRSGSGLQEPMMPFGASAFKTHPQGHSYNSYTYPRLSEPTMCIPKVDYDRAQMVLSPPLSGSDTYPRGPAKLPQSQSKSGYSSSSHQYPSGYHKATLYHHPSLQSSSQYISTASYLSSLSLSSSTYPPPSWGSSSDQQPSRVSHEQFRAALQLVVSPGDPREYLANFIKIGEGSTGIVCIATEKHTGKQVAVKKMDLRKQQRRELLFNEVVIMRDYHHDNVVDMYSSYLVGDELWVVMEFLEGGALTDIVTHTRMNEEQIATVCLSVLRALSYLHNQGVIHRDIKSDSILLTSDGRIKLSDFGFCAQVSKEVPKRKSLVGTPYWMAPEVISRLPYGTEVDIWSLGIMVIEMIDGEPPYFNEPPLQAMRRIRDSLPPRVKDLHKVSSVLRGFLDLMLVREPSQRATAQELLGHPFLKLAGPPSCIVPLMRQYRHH

SMILES: CN(C)c1cc[n+](CCCCCCCCCCCC[n+]2ccc(N(C)C)cc2)cc1 [ICL-CCIC-0019]
- potency compared with MN58B ([1]; CHKA inhibition): equipotent to MN58B
- potency relative to CK37 (times more potent) ([1]; CHKA inhibition): > 500 times
- IC50 ([1]; read-out: IC50 of CHKA activity): 270 ± 60 nM
- inhibition in all 131 kinases [2]: ≤ 35%
- number of kinases inhibited more than 20% ([2]; 131 kinases): 5
- remaining activity at 10 µM [3]: 102%
- remaining activity at 10 µM [4]: 94%
- remaining activity at 10 µM [5]: 131%
- remaining activity at 10 µM [6]: 91%
- remaining activity at 10 µM [7]: 90%
- remaining activity at 10 µM [8]: 99%
- remaining activity at 10 µM [9]: 101%
- remaining activity at 10 µM [10]: 123%
- remaining activity at 10 µM [11]: 89%
- remaining activity at 10 µM [12]: 83%
- remaining activity at 10 µM [13]: 106%
- remaining activity at 10 µM [14]: 102%
- remaining activity at 10 µM [15]: 105%
- remaining activity at 10 µM [16]: 86%
- remaining activity at 10 µM [17]: 103%
- remaining activity at 10 µM [18]: 99%
- remaining activity at 10 µM [19]: 107%
- remaining activity at 10 µM [20]: 90%
- remaining activity at 10 µM [21]: 93%
- remaining activity at 10 µM [22]: 94%
- remaining activity at 10 µM [23]: 97%
- remaining activity at 10 µM [24]: 100%
- remaining activity at 10 µM [25]: 101%
- remaining activity at 10 µM [26]: 107%
- remaining activity at 10 µM [27]: 108%
